Experimental data from a melting point compilation (Tetko et al.; mined from patent text by program, amines drawn as free bases though some values may be those of a salt).

With `CC(=O)c1ccc(-c2ncc[nH]2)cc1` the melting point was 213 to 216 °C. Work on `CCc1nn(COC(N)=O)c(CC)c1Cc1cc(Cl)cc(Cl)c1` yielded a melting point of 153 to 155 °C. Work on `O=[N+]([O-])c1ccc(C2OCCc3cc4c(cc32)OCO4)cc1` (stereo not given) yielded a melting point of 149 to 150 °C. `CCc1c(CO)c(CO)c2n1-c1ccccc1C2` gave a melting point of 131 to 133 °C. For `CCOC(=O)c1cc(F)ccc1[N+](=O)[O-]`, the melting point was < 50 °C. `Cc1cc(C)c(/C=C2\C(=O)N(CO)c3ccccc32)[nH]1` showed a melting point of 196 to 200 °C. With `CCC(C)(NC(=O)C1=C(C(=O)Nc2cc(OC3CCCC3)c(Cl)cc2F)CCCC1)c1ccc(Cl)cc1` (stereo not given) the melting point was 200 to 201 °C. `O=C(Nc1ccc2[nH]c(=S)oc2c1)C(=O)N1CCC(Cc2ccccc2)CC1` showed a melting point of 203 °C. With `CS(=O)(=O)c1ccc(-c2cnn(-c3ccc(F)cc3)c(=O)c2C#Cc2ccccc2)cc1` the melting point was 203 to 204 °C. With `Nc1ncc2cc(-c3ccncc3)c(N)nc2n1` the melting point was > 340 °C. In the case of `Cn1nnnc1SCCCC(=O)c1ccco1`, the melting point is reported as 41 to 42 °C. In the case of `CC(=O)c1ccc(OCn2cc(Cl)cnc2=O)cc1`, the melting point is reported as 182 °C. In the case of `NCCc1ccc(Nc2ncc3c(n2)-c2ccccc2C(c2cccc(Br)c2)C3)cc1` (stereo not given), the melting point is reported as 115 to 117 °C. `CC12CCC3c4ccc(O)cc4CCC3C1CCC2OC(=O)c1cccnc1` (stereo not given) gave a melting point of 221 to 222 °C. In the case of `O=C(NCCCSc1ccncc1)c1ccccc1CO`, the melting point is reported as 110 to 111 °C. Compound `Cc1ccsc1C(=O)C[N+](=O)[O-]` has a melting point of 59 to 61 °C. `CCCc1nn(C)c2c(=O)[nH]c(-c3cc(/C=C/C(=O)N(C)C)ccc3OCC)nc12` gave a melting point of 219 to 221 °C. With `O=C(c1cccc(Cl)c1)c1ccnc2ccccc12` the melting point was 92.7 °C. For `CC(C)N(C(=O)c1ccc(OCCCCCOc2ccc(C(N)=NO)cc2)cc1)C(C)C`, the melting point was 146 to 149 °C. For `Cc1ccc(S(=O)(=O)NCCC(C(=O)NO)C2(CC(C)C)CCN(CCc3ccccc3)C2=O)cc1` (stereo not given), the melting point was 166 to 167 °C. Compound `O=C(NCCCCCCCCc1ccccc1)c1cc(-c2cccc(C(F)(F)F)c2)cc(-c2cccc(C(F)(F)F)c2OCCCCc2nnn[nH]2)c1` has a melting point of 145 to 151 °C. In the case of `O=C1CN(C(=O)OCc2ccccc2)CC(=O)O1`, the melting point is reported as 133 to 137 °C. Work on `O=C(O)Cc1c(C(=O)c2cccc(Cl)c2)[nH]c2ccc(F)cc12` yielded a melting point of 208 to 212 °C. For `CNC(=O)COC[C@@H]1CC(c2ccc(-c3ccc(N4C[C@H](Cn5ccnn5)OC4=O)cc3F)cn2)=NO1`, the melting point was 153 to 156 °C. `CN(CCCC(=O)O)c1ccc(C(=O)c2ccccc2)cc1` showed a melting point of 111 to 113 °C. In the case of `CCOC(=O)c1ccccc1CN1C(=O)C(CCO)Oc2ccccc21` (stereo not given), the melting point is reported as 114 to 116 °C. Work on `Cc1cc(C(F)(F)F)ccc1NC(=O)C(C)(C)C` yielded a melting point of 111 to 114 °C. In the case of `CCC(NC(=O)c1c(O)c(-c2ccccc2)nc2ccccc12)c1ccccc1` (single isomer, unassigned; (-)), the melting point is reported as 122 to 125 °C. `CCCc1c[nH]nc1OCCCc1cn(-c2ccc(C(F)(F)F)cn2)nc1CCC` gave a melting point of 127 to 128 °C. `Nc1ccc2c(c1)SC1=NCCCN12` gave a melting point of 186 °C. `Nc1ccccc1N(C=O)CCCCO` gave a melting point of 77 to 79 °C. Compound `COc1ccc2[nH]c(-c3cc4cccnc4n3S(=O)(=O)c3ccc(C)cc3)cc2c1` has a melting point of 226 to 227 °C. Work on `CCOC(=O)COc1ccc(C=O)c(O)c1` yielded a melting point of 97 to 99 °C. Work on `CCNc1ncc2ccc(=O)n(C)c2n1` yielded a melting point of 194 to 195 °C. Work on `Cc1ccc(-c2c(NS(=O)(=O)c3ccc(C(C)(C)C)cc3)nc(S(C)(=O)=O)nc2OCCOCc2ccccc2)cc1` yielded a melting point of 129 to 130 °C. `CC(=O)NCCC1CCc2ccn3nc(C)cc3c21` (stereo not given) showed a melting point of 106 to 107 °C. With `O=C1c2nccc(Cl)c2-c2nc3ccccc3c3ccnc1c23` the melting point was > 260 °C. Compound `O=Cc1cccc(-c2cc3nccnc3[nH]2)c1` has a melting point of 268 to 270 °C. In the case of `CCOC(=O)c1cn(C)c2nc3c(F)c(N4CCNC(c5ccccc5)C4)c(F)cc3cc2c1=O` (racemic), the melting point is reported as 216 °C. `CCC1(O)NC(=O)C2(c3ccc(Cl)cc3)CC12` (stereo not given) showed a melting point of 117 to 124 °C. With `CCCCCCCCCCCCCCCCSCC(O)CO` (stereo not given) the melting point was 72 to 74 °C. `Cc1ncc2c(c1OCC(=O)O)COC2(C)c1ccc(Cl)cc1` (stereo not given) showed a melting point of 184 °C. In the case of `COC(=O)c1cc(C(=O)OC)cc(P(=O)(c2ccccc2)c2ccccc2)c1`, the melting point is reported as 170 to 171 °C. Compound `O=C1N=NC(CO)=C1c1ccccc1` has a melting point of 165 to 168 °C. Work on `CC(=O)NNc1nnc(-c2ccccc2)c(-c2ccccc2)n1` yielded a melting point of 166 to 168 °C. For `O=S(=O)(c1ccccc1)c1cc(Cl)c2oc3c(c2c1)CC(O)CC3` (stereo not given), the melting point was 236 to 240 °C. For `CC(C)C(=S)Nc1ccc([N+](=O)[O-])c(C(F)(F)F)c1`, the melting point was 74 to 76 °C. For `CC(C)c1cccc(C(C)C)c1N=C(c1ccccc1)N(CC(=O)c1ccccc1)c1c(C(C)C)cccc1C(C)C`, the melting point was 142 to 143 °C. For `COC1=CC(OC)(OC)CC=C1C(=O)OCC(=O)c1ccccc1`, the melting point was 97 to 98 °C. For `COc1cc(Nc2nccc(C(C)(C)C)n2)cc(OC)c1OC`, the melting point was 122 °C.
